From patent US6608111B1, “Method for treating or preventing prostatic conditions” (Southern Illinois University Office of Research, …, priority 1998, dated 2003)

Assays:
[1] = tested on: female mice; settings: E2 5 g/animal/day, (±)-Z-BDDA 5, 50, and 500 g/animal/day, versus control group; cited from earlier work
[2] = tested on: dialyzed LDL; assay: Oxidized LDL lag time assay (antioxidant capacity); set-up: species or system human; settings: 3 μM Cu2SO4, drugs at 10^−4, 10^−5, 10^−6, and 10^−7 M
Description: Experiments were carried out on dialyzed LDL collected from four fasted persons. The LDL was used within 10 days of dialysis. The oxidizing agent was 3 μM […]; phosphate buffered saline was used to control pH, and all drugs were dissolved in ethanol; final concentrations of each drug in the assays were 10^−4, 10^−5, 10^−6, and 10^−7 M. The combined results are shown in FIG. 6.

[3] = tested on: primary porcine granulosa cells; assay: In situ apoptosis assay in primary porcine granulosa cells; assay type: cell-based; settings: for mean apoptosis (% area): 24 hr treatment, 0.1, 1 and 10 μM combined, serum-free MEM, controls 63.4% / 68.4%
Description: Porcine ovaries were obtained from local packing plants and transported to the laboratory on ice-cold Hank's balanced salt solution (HBSS). Each of the follicles was aspirated with an insulin syringe, and the follicular fluid was centrifuged at 3000 rpm and 4° C. for 15 min. The supernatant was poured off and the cells were washed in 5 mls of cold HBSS and centrifuged for another 10 min. The cells were again resuspended in HBSS, and the number of viable cells counted under the microscope using a hematocytometer. Once the number of cells was determined, the cells were centrifuged again for 10 min. and resuspended in the appropriate volume of Eagle's minimum essential media (MEM) containing 10% fetal bovine serum (FBS) and antibiotic/antimycotics. The cells were plated at 250,000 per well in 8 chamber microscope slides (Nunc, Naperville, Ill.) which were pre-treated with poly-L-lysine for 10 min. The slides were incubated at 5% CO2/95% air at 37° C. Approximately 12 hours later, the medium was removed by vacuum and replaced with pre-warmed, serum-free MEM. Cells were then treated for 2-3 hrs with MEM only to wash out any estrogen effects from the serum (Winters et al. (1994) Biol. Reprod. 50 (Suppl. 1):113; Suttner et al. (1998) Biol. Reprod. 59 (Suppl.): (Accepted for publication). Following serum-free MEM treatment, cells were treated for 24 hr with (+) or (−) enantiomers of Z-BDDA or estradiol at 0. 1, 1, and 10 μM, or EtOH vehicle control in serum-free MEM. Cells were subsequently processed using an in situ apoptosis assay kit (Apotag-Plus In Situ Apoptosis Kit-Peroxidase, Edition 1.1., Oncor, Gaithersburg, Md., 1995) to study ovarian apoptosis (Suttner et al., 1998). The slides were washed in two changes of PBS for 5 min each, and then quenched in 2% hydrogen peroxide in methanol for 5 min. at room temperature. After pre-treatment with an equilibration buffer, 13 ul of Terminal deoxynucleotidyl Transferase (TdT) diluted with reaction buffer and distilled water were added, and the slides were incubated for 1 h at 37° C. in a humidified chamber. After this 1 h period, the slides were put in pre-warmed stop wash buffer in the incubator for 30 min to stop the reaction. Next, the slides were washed in three changes of PBS for 5 min. each, and the anti-digoxigenin peroxidase was placed on the slides for 30 min. in a humidified chamber at room temperature. […] The degree of apoptosis for the calorimetric apoptosis assay was quantified microscopically using an image analysis system (Optimas 5.23, Optimas Users Guide, 5th Edition, Redmond, Wash.). Ten measurements (captured images) were taken for each concentration based on a pre-determined grid. […] Percentage area of each color was then quantitated using the image analysis system. […]

[4] = tested on: estrogen receptors ERα and ERβ; settings: direct receptor binding assays or dose-response profiles of estrogen-responsive reporter genes in cell culture; cited from earlier work

Structure (SMILES) | rate of weight gain [1] | antioxidant activity (shift in lag time of LDL oxidation) [2] | percent apoptosis ([3]; 24 hr treatment at 10 μM) | mean apoptosis (% area) [3] | binding affinity for estrogen receptors [4]
C[C@]12CCC3c4ccc(O)cc4CCC3[C@@H]1CCC2O (single isomer, unassigned; (+)) [estradiol, (+)-17β-estradiol, reference compound] | increased | very little antioxidant activity | 23.8% | 46.5% | 
CC[C@H]1c2ccc3cc(O)ccc3c2CC[C@@]1(C)C(=O)O [(+)-Z-BDDA, (+)-Z-bisdehydrodoisynolic acid] |  | significant antioxidant activity |  | 61.1% | even lower than that of the (−) enantiomer
